Measured values as given in ChEMBL document CHEMBL4507296 (2021).
Calls of active or inactive are those of the source. The calls are words filed in the database; no cut-off is given here.

Tests used:
[1] = biological target: Protein kinase C theta type (Homo sapiens) (UniProt Q04759); details: Compound concentration 1000.0 nM
[2] = biological target: RAC-gamma serine/threonine-protein kinase (Homo sapiens) (UniProt Q9Y243); details: Compound concentration 1000.0 nM
[3] = biological target: Serine/threonine-protein kinase Sgk3 (Homo sapiens) (UniProt Q96BR1); details: Compound concentration 1000.0 nM
[4] = tested on: Epidermal growth factor receptor (Homo sapiens), P00533 [T790M]; details: Compound concentration 1000.0 nM
[5] = biological target: Ribosomal protein S6 kinase alpha-4 (Homo sapiens) (UniProt O75676); details: Compound concentration 1000.0 nM
[6] = biological target: SRSF protein kinase 1 (Homo sapiens) (UniProt Q96SB4); details: Compound concentration 1000.0 nM
[7] = biological target: Serine/threonine-protein kinase 17A (Homo sapiens) (UniProt Q9UEE5); details: Compound concentration 1000.0 nM
Serine/threonine-protein kinase 17A (Homo sapiens), sequence (Q9UEE5 whole entry): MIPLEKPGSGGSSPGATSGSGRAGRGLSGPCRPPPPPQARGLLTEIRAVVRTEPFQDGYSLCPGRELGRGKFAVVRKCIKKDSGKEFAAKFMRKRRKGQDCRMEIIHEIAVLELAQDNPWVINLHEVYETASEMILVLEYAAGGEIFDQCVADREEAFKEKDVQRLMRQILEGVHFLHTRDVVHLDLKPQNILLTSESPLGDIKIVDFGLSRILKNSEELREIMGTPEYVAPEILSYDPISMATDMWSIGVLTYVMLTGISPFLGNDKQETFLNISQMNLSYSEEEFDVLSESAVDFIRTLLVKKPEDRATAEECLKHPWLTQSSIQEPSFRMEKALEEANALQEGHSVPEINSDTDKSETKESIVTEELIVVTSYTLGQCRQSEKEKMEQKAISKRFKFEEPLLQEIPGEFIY

[8] = tested on: ALK tyrosine kinase receptor (Homo sapiens), Q9UM73 [C1156Y]; details: Compound concentration 1000.0 nM
[9] = biological target: Substance-P receptor (Homo sapiens) (UniProt P25103); test: Neurokinin 1 (human) CEREP ligand profiling; details: Compound concentration 10.0 uM
[10] = biological target: Homeodomain-interacting protein kinase 2 (Homo sapiens) (UniProt Q9H2X6); details: Compound concentration 1000.0 nM
[11] = biological target: Serine/threonine-protein kinase Nek9 (Homo sapiens) (UniProt Q8TD19); details: Compound concentration 1000.0 nM
[12] = biological target: Mitogen-activated protein kinase kinase kinase 10 (Homo sapiens) (UniProt Q02779); details: Compound concentration 1000.0 nM
[13] = biological target: Transient receptor potential cation channel subfamily M member 8 (Homo sapiens, UniProt Q7Z2W7); test: Transients WS-12 activation
[14] = biological target: RAC-beta serine/threonine-protein kinase (Homo sapiens) (UniProt P31751); details: Compound concentration 1000.0 nM
[15] = biological target: Protein kinase C iota type (Homo sapiens) (UniProt P41743); details: Compound concentration 1000.0 nM
[16] = biological target: Homeodomain-interacting protein kinase 4 (Homo sapiens) (UniProt Q8NE63); details: Compound concentration 1000.0 nM
Homeodomain-interacting protein kinase 4 (Homo sapiens), sequence (Q8NE63 whole entry): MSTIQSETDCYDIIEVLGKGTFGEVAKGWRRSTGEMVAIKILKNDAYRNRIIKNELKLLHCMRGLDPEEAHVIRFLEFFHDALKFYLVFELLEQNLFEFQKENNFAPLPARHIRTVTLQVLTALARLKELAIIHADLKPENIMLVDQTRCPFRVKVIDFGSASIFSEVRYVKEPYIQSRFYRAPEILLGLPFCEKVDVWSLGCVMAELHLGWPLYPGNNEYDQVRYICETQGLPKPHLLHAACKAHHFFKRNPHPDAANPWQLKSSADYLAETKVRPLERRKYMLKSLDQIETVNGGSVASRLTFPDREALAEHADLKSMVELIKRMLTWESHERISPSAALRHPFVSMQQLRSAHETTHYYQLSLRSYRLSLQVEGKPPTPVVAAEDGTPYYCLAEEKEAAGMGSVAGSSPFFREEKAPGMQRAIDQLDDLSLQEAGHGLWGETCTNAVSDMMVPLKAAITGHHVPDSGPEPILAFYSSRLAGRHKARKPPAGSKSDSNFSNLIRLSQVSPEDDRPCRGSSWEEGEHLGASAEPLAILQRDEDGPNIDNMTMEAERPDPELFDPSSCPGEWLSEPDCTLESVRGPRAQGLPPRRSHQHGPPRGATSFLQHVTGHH

[17] = biological target: Cyclin-dependent kinase-like 1 (Homo sapiens) (UniProt Q00532); details: Compound concentration 1000.0 nM
[18] = biological target: 5'-AMP-activated protein kinase catalytic subunit alpha-1 (Homo sapiens) (UniProt Q13131); details: Compound concentration 1000.0 nM
[19] = biological target: Serine/threonine-protein kinase Nek11 (Homo sapiens) (UniProt Q8NG66); details: Compound concentration 1000.0 nM
[20] = biological target: Mitogen-activated protein kinase 15 (Homo sapiens) (UniProt Q8TD08); details: Compound concentration 1000.0 nM
[21] = biological target: 5-hydroxytryptamine receptor 1B (Homo sapiens) (UniProt P28222); details: Compound concentration 10.0 uM
[22] = tested on: Epidermal growth factor receptor (Homo sapiens), P00533 [UNDEFINED MUTATION]; details: Compound concentration 1000.0 nM
[23] = biological target: Serine/threonine-protein kinase MARK1 (Homo sapiens) (UniProt Q9P0L2); details: Compound concentration 1000.0 nM
[24] = biological target: Vascular endothelial growth factor receptor 3 (Homo sapiens) (UniProt P35916); details: Compound concentration 1000.0 nM
[25] = tested on: Mast/stem cell growth factor receptor Kit (Homo sapiens), P10721 [D816H]; details: Compound concentration 1000.0 nM
[26] = biological target: Mu-type opioid receptor (Homo sapiens) (UniProt P35372); test: m-Opioid (human) CEREP ligand profiling; details: Compound concentration 10.0 uM
[27] = biological target: Dual specificity mitogen-activated protein kinase kinase 4 (Homo sapiens) (UniProt P45985); details: Compound concentration 1000.0 nM
[28] = biological target: Serine/threonine-protein kinase Nek5 (Homo sapiens) (UniProt Q6P3R8); details: Compound concentration 1000.0 nM
[29] = biological target: Tyrosine-protein kinase Blk (Homo sapiens) (UniProt P51451); details: Compound concentration 1000.0 nM
[30] = biological target: Vascular endothelial growth factor receptor 2 (Homo sapiens) (UniProt P35968); details: Compound concentration 1000.0 nM
[31] = biological target: Phosphorylase b kinase gamma catalytic chain, skeletal muscle/heart isoform (Homo sapiens) (UniProt Q16816); details: Compound concentration 1000.0 nM
[32] = tested on: Leucine-rich repeat serine/threonine-protein kinase 2 (Homo sapiens), Q5S007 [G2019S]; details: Compound concentration 1000.0 nM
[33] = tested on: Phosphatidylinositol 4,5-bisphosphate 3-kinase catalytic subunit alpha isoform (Homo sapiens), P42336 [E545A]; details: Compound concentration 1000.0 nM
[34] = biological target: Phosphatidylinositol 4,5-bisphosphate 3-kinase catalytic subunit beta isoform (Homo sapiens) (UniProt P42338); details: Compound concentration 1000.0 nM
[35] = tested on: eIF-2-alpha kinase GCN2 (Homo sapiens), Q9P2K8 [S808G]; details: Compound concentration 1000.0 nM
eIF-2-alpha kinase GCN2 (Homo sapiens), Q9P2K8 [S808G], sequence (Q9P2K8 whole entry S808G): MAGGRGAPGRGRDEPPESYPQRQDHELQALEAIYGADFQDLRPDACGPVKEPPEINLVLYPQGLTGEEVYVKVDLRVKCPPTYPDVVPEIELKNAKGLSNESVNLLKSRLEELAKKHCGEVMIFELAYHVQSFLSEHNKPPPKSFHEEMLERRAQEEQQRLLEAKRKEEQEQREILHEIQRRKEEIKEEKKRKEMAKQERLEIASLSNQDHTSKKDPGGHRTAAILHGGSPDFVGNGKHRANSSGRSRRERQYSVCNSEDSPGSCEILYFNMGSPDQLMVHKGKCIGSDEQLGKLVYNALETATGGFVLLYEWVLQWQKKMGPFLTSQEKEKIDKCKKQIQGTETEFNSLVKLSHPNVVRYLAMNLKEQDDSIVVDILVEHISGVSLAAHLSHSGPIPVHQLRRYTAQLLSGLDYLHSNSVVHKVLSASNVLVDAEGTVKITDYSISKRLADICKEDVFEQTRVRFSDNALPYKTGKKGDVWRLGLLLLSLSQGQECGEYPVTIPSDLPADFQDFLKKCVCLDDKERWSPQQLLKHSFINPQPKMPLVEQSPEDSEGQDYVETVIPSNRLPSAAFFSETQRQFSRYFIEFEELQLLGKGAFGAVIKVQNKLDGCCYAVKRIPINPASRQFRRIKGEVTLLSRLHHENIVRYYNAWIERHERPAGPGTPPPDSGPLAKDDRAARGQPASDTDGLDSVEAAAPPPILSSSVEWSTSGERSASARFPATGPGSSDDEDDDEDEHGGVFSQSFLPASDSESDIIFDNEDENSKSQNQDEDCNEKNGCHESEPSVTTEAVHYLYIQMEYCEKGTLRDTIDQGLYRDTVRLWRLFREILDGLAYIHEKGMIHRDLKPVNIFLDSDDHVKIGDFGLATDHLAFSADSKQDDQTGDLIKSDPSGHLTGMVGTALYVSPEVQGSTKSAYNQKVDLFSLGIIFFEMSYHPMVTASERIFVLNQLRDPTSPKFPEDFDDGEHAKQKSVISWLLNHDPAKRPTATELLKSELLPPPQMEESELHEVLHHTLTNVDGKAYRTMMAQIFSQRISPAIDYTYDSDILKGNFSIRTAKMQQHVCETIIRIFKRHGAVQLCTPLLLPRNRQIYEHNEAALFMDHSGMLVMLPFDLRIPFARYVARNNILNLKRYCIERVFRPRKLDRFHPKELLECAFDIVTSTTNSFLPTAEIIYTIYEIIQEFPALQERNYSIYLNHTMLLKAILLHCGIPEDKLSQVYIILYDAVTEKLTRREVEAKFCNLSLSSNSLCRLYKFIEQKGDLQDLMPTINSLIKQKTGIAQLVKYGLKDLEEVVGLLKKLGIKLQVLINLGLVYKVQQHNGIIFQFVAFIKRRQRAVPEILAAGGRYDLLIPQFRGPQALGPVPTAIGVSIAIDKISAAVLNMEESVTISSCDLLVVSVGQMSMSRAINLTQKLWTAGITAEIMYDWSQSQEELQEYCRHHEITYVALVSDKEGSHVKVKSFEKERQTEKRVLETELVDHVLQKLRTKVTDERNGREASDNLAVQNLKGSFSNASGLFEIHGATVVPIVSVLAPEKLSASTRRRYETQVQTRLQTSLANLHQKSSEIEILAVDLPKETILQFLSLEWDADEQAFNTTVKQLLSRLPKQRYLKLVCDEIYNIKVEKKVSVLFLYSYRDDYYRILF

[36] = tested on: Tyrosine-protein kinase ABL1 (Homo sapiens), P00519 [E255K]; details: Compound concentration 1000.0 nM
[37] = tested on: Mast/stem cell growth factor receptor Kit (Homo sapiens), P10721 [V559D,V654A]; details: Compound concentration 1000.0 nM
[38] = biological target: 5-hydroxytryptamine receptor 2A (Homo sapiens) (UniProt P28223); details: Compound concentration 10.0 uM
[39] = tested on: Receptor-type tyrosine-protein kinase FLT3 (Homo sapiens), P36888 [UNDEFINED MUTATION]; details: Compound concentration 1000.0 nM
[40] = biological target: Dual specificity mitogen-activated protein kinase kinase 2 (Homo sapiens) (UniProt P36507); details: Compound concentration 1000.0 nM
[41] = biological target: Epithelial discoidin domain-containing receptor 1 (Homo sapiens) (UniProt Q08345); details: Compound concentration 1000.0 nM
[42] = biological target: Activin receptor type-1B (Homo sapiens) (UniProt P36896); details: Compound concentration 1000.0 nM
[43] = biological target: Mitogen-activated protein kinase kinase kinase kinase 4 (Homo sapiens) (UniProt O95819); details: Compound concentration 1000.0 nM
[44] = biological target: Proto-oncogene tyrosine-protein kinase ROS (Homo sapiens) (UniProt P08922); details: Compound concentration 1000.0 nM
Proto-oncogene tyrosine-protein kinase ROS (Homo sapiens), sequence (P08922 whole entry): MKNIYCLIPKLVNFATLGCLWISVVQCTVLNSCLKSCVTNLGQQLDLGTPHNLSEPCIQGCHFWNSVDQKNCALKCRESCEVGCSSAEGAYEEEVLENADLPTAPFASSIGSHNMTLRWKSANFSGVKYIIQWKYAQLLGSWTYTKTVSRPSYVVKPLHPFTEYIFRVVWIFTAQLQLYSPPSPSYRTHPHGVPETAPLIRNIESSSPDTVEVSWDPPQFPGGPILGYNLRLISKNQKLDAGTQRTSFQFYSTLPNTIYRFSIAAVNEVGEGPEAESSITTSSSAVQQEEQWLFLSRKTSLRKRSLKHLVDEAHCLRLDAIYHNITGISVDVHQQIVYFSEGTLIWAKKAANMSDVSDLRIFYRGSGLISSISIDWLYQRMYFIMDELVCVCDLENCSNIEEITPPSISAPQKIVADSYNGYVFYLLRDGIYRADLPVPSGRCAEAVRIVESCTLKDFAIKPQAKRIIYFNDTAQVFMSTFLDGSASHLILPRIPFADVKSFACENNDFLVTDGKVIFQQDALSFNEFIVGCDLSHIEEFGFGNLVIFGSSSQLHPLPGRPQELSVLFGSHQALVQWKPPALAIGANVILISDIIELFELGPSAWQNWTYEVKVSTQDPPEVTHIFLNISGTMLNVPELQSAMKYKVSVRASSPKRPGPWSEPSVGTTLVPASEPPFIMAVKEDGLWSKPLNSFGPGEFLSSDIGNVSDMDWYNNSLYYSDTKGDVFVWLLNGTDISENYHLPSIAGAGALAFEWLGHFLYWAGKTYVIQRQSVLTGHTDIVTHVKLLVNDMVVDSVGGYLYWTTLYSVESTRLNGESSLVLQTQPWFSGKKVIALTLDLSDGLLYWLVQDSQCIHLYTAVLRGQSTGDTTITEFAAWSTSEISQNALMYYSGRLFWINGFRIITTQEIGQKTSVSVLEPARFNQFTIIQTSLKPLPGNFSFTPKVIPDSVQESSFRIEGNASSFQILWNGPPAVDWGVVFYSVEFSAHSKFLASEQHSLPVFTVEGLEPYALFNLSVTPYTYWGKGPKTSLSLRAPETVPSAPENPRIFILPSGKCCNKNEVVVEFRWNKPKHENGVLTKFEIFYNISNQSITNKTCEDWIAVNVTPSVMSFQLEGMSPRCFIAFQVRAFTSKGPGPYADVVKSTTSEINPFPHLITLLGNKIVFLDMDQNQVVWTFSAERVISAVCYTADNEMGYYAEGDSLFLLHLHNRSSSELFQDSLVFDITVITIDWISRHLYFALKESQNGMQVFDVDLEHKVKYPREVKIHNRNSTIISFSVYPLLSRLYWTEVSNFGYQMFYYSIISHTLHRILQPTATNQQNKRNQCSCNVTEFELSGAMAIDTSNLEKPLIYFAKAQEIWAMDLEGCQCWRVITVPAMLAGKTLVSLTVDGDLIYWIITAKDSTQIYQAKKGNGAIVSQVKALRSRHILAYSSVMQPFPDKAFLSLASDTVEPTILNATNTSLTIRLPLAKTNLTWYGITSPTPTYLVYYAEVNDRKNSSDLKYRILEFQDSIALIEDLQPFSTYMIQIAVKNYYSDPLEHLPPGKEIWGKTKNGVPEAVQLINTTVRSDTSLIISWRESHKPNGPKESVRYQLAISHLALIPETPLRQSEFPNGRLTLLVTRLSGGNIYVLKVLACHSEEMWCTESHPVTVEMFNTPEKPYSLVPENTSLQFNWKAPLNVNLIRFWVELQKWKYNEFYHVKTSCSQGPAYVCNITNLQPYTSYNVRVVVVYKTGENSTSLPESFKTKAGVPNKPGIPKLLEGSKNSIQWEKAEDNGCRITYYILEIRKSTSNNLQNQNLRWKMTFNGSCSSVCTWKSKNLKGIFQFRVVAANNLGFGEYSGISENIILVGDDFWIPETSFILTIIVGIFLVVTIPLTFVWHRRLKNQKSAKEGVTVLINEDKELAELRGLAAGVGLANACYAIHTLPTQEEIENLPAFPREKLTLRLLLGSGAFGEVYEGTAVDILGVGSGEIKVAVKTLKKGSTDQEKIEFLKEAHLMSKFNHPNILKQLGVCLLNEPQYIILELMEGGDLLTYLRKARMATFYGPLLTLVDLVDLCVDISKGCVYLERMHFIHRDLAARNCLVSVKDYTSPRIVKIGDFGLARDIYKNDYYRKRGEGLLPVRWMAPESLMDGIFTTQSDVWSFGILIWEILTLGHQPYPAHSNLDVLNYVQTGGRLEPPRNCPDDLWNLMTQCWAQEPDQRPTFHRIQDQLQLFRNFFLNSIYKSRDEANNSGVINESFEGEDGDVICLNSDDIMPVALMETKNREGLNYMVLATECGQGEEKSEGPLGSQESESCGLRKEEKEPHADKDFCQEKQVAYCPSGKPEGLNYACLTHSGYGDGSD

[45] = biological target: Phosphatidylinositol 4-kinase beta (Homo sapiens) (UniProt Q9UBF8); details: Compound concentration 1000.0 nM

## C[C@H](c1ccc(F)cc1)N(Cc1cccc(C(=O)O)c1)C(=O)c1cnc2ccccc2c1 [PF-05105679]
[1]
  residual activity: 100%
[2]
  residual activity: 100%
[3]
  residual activity: 100%
[4]
  residual activity: 100%
[5]
  residual activity: 85%
[6]
  residual activity: 95%
[7]
  residual activity: 86%
[8]
  residual activity: 69%
[9]
  inhibition: 18%
[10]
  residual activity: 100%
[11]
  residual activity: 100%
[12]
  residual activity: 100%
[13]
  IC50: 29.6 nM (active)
[14]
  residual activity: 87%
[15]
  residual activity: 100%
[16]
  residual activity: 93%
[17]
  residual activity: 100%
[18]
  residual activity: 100%
[19]
  residual activity: 82%
[20]
  residual activity: 93%
[21]
  inhibition: 4.38%
[22]
  residual activity: 100%
[23]
  residual activity: 100%
[24]
  residual activity: 95%
[25]
  residual activity: 100%
[26]
  inhibition: 25%
[27]
  residual activity: 100%
[28]
  residual activity: 100%
[29]
  residual activity: 88%
[30]
  residual activity: 100%
[31]
  residual activity: 88%
[32]
  residual activity: 100%
[33]
  residual activity: 100%
[34]
  residual activity: 100%
[35]
  residual activity: 100%
[36]
  residual activity: 100%
[37]
  residual activity: 100%
[38]
  inhibition: -0.2%
[39]
  residual activity: 100%
[40]
  residual activity: 100%
[41]
  residual activity: 100%
[42]
  residual activity: 100%
[43]
  residual activity: 96%
[44]
  residual activity: 100%
[45]
  residual activity: 98%
